The record followed here is PubChem BioAssay (NCI).

Test systems include RPMI-8226 leukemia; NCI-H226 lung; HCT-15 colon; SR leukemia; ACHN renal; A498 renal; OVCAR-3 ovarian; SNB-75 CNS; SK-MEL-5 melanoma; UACC-257 melanoma.
Common to all, as to assay: DTP human tumour cell line panel, 48 h

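In this assay, cells in 96-well plates receive the compound at five concentrations for 48 hours. Endpoints are linearly interpolated between the surrounding concentrations. Abbreviation: GI50, concentration required for 50% inhibition of growth. TGI marks complete inhibition of growth.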

As to `Oc1[nH]c2ccccc2c1/C=c1/ccc2c(c1)N=C(c1cc(F)cc(F)c1)N=2`, the GI50 is 3.22 µM in the test with RPMI-8226 leukemia; 11.4 µM in the test with NCI-H226 lung; 3.52 µM in the test on HCT-15 colon; 2.43 µM with SR leukemia; 7.39 µM in the test with ACHN renal; 1.53 µM with A498 renal. Besides, the GI50 in the test on OVCAR-3 ovarian was 5 µM; in the test with SNB-75 CNS, 3.22 µM; with SK-MEL-5 melanoma it was 5.82 µM; with UACC-257 melanoma it was 10.6 µM. For the same compound, the total growth inhibition concentration (TGI) in the test on RPMI-8226 leukemia was 17.5 µM; in the test on NCI-H226 lung, 34.5 µM; in the test on HCT-15 colon it was 14.1 µM; in the test with SR leukemia, 9.21 µM; in the test with ACHN renal it was 21.3 µM; in the test with A498 renal, 17 µM. Further, the TGI with OVCAR-3 ovarian came to 17.9 µM; in the test on SNB-75 CNS, 17.7 µM; in the test with SK-MEL-5 melanoma, 19.1 µM; in the test with UACC-257 melanoma it was 26.4 µM.
On to `Cc1ccnc(NC(c2ccccc2)c2ccc3cccnc3c2O)c1` (stereo not given), for which the GI50 with RPMI-8226 leukemia was 8.19 µM; in the test on NCI-H226 lung, 4.48 µM; in the test on HCT-15 colon, 3.35 µM; with SR leukemia, 2.7 µM; with ACHN renal, 3.46 µM; in the test with A498 renal it was 2.08 µM. Besides, the GI50 is 2.79 µM in the test with OVCAR-3 ovarian, 21.1 µM in the test with SNB-75 CNS, 4.31 µM in the test with SK-MEL-5 melanoma and 2.62 µM in the test with UACC-257 melanoma. Also, the TGI in the test on RPMI-8226 leukemia is > 100 µM; in the test with NCI-H226 lung, 44.6 µM; in the test with HCT-15 colon, > 100 µM; in the test with SR leukemia, > 100 µM; in the test with ACHN renal it was > 100 µM; with A498 renal, 9.55 µM. The TGI in the test with OVCAR-3 ovarian was 14 µM; in the test with SNB-75 CNS, > 100 µM; in the test on SK-MEL-5 melanoma it was 15.6 µM; in the test on UACC-257 melanoma, 9.9 µM.
Take `CCCCC1N=CNc2c1ccc1c2[nH]c2ccccc21` (stereo not given): the TGI was 5.13 µM with RPMI-8226 leukemia; > 61.1 µM in the test with NCI-H226 lung; 4.72 µM with HCT-15 colon; 4.66 µM with SR leukemia; 5.45 µM with ACHN renal; 29.8 µM in the test on A498 renal. Moreover, the TGI came out at 12.2 µM in the test with OVCAR-3 ovarian, 5.54 µM in the test on SNB-75 CNS, 2.95 µM in the test on SK-MEL-5 melanoma and 3.3 µM with UACC-257 melanoma.
As for `NC(CSC1(c2ccc(Cl)cc2)c2ccccc2-c2ccccc21)C(=O)O` (stereo not given), the TGI in the test with RPMI-8226 leukemia was > 100 µM; in the test with NCI-H226 lung, 67.5 µM; in the test on HCT-15 colon it was 47.3 µM; with SR leukemia it was 46.9 µM; with ACHN renal, 50.2 µM; in the test on A498 renal it was 35 µM. For the same compound, the concentration for total growth inhibition (TGI) in the test with OVCAR-3 ovarian is > 100 µM; in the test on SNB-75 CNS, 62.9 µM; in the test on SK-MEL-5 melanoma, 30.6 µM; with UACC-257 melanoma it was 34.4 µM.
In the case of `COC(=O)c1cc2c(nc1C)-c1ccccc1OS2(=O)=O`, the concentration for total growth inhibition (TGI) with RPMI-8226 leukemia, in the test with NCI-H226 lung, in the test on HCT-15 colon, in the test on SR leukemia, in the test on ACHN renal and in the test with A498 renal was > 100 µM throughout. The total growth inhibition concentration (TGI) was > 100 µM with OVCAR-3 ovarian, 35.3 µM in the test on SNB-75 CNS, > 100 µM in the test with SK-MEL-5 melanoma and > 100 µM in the test on UACC-257 melanoma.
On to `O=C(Nc1nc(-c2ccccc2Cl)cs1)c1cc(-c2ccc(Cl)cc2)nc2ccc(Cl)cc12`, for which the GI50 with RPMI-8226 leukemia was 1.38 µM; with NCI-H226 lung, 2.32 µM; with HCT-15 colon, 1.93 µM; in the test on SR leukemia, 3.15 µM; in the test with ACHN renal, 3.84 µM; with A498 renal, 27.4 µM. Also, the GI50 in the test with OVCAR-3 ovarian is 2.64 µM; in the test on SNB-75 CNS, 3.38 µM; in the test on SK-MEL-5 melanoma it was 2.51 µM; in the test with UACC-257 melanoma, 14.9 µM. The TGI in the test with RPMI-8226 leukemia was > 100 µM; with NCI-H226 lung, 8.54 µM; with HCT-15 colon it was 40 µM; in the test with SR leukemia, > 100 µM; in the test with ACHN renal it was 78.2 µM; with A498 renal, > 100 µM. The TGI with OVCAR-3 ovarian was 13.1 µM; in the test with SNB-75 CNS, > 100 µM; in the test on SK-MEL-5 melanoma it was 9.07 µM; in the test with UACC-257 melanoma it was > 100 µM.
Consider `CNC(=O)c1cc(Oc2ccc3nc(NC(=O)Nc4cc(C(F)(F)F)cc(C(F)(F)F)c4)sc3c2)ccn1`, for which the GI50 is 1.02 µM with RPMI-8226 leukemia; 1.45 µM in the test on NCI-H226 lung; 1.5 µM with HCT-15 colon; 0.514 µM in the test with SR leukemia; 0.542 µM with ACHN renal; 1.02 µM with A498 renal. The GI50 in the test on OVCAR-3 ovarian was 1.03 µM; in the test on SNB-75 CNS it was 1 µM; with SK-MEL-5 melanoma, 0.593 µM; in the test with UACC-257 melanoma, 1.15 µM. Besides, the concentration for total growth inhibition (TGI) with RPMI-8226 leukemia is 3.81 µM; in the test with NCI-H226 lung, 3.57 µM; with HCT-15 colon, 3.31 µM; with SR leukemia it was 2.6 µM; in the test with ACHN renal, 1.98 µM; in the test with A498 renal, 2.46 µM. In addition, the TGI was determined as 2.27 µM with OVCAR-3 ovarian, 2.7 µM with SNB-75 CNS, 2.09 µM in the test with SK-MEL-5 melanoma and 2.62 µM in the test on UACC-257 melanoma.
For `COC1/C=C/OC2(C)Oc3c(C)c(O)c4c(O)c(c(C=NOC(c5ccccc5)c5ccccc5)c(O)c4c3C2=O)NC(=O)/C(C)=C/C=C/C(C)C(O)C(C)C(O)C(C)C(OC(C)=O)C1C` (stereo not given), the GI50 with RPMI-8226 leukemia is 1.16 µM; in the test with NCI-H226 lung, 1.74 µM; in the test with HCT-15 colon, 1.17 µM; with SR leukemia it was 1.94 µM; in the test on ACHN renal, 1.17 µM; in the test with A498 renal, 1.18 µM. Also, the GI50 was 1 µM in the test with OVCAR-3 ovarian, 1.34 µM in the test with SNB-75 CNS, 0.805 µM in the test on SK-MEL-5 melanoma and 1.14 µM in the test with UACC-257 melanoma. In addition, the concentration for total growth inhibition (TGI) with RPMI-8226 leukemia came to 3.19 µM; in the test with NCI-H226 lung, 8.76 µM; with HCT-15 colon it was 2.96 µM; in the test with SR leukemia it was 5.93 µM; in the test on ACHN renal it was 2.73 µM; with A498 renal it was 4.6 µM. Also, the concentration for total growth inhibition (TGI) is 2.01 µM in the test with OVCAR-3 ovarian, 5.73 µM in the test with SNB-75 CNS, 1.52 µM in the test with SK-MEL-5 melanoma and 3.08 µM in the test with UACC-257 melanoma.
